“And” between values parts separate entries of the source, which are not always exact repeats. Identical values can stand only once. Like-named read-outs stand apart in the source and are kept apart here. Non-standard residues stand in square brackets, D forms with d. Residues, ends and D or L forms follow the SMILES beside them. Nle = CCCC[C@H](N)C(=O)O
Experiments:
Type in all cases: cell-based
[1] = tested on: FYVE-RFP; experiment: High-content analysis of FYVE-RFP fluorescence (PI(3)P level) in H4-FYVE cell line
Source text: Class III PI(3)K Vps34 is a multifunctional protein. On the one hand, it catalyzes the phosphorylation of PI to generate PI(3)P and is of key importance in the endocytic and autophagosome membrane transport processes. At the same time, a compound formed from Vps34/beclin1 is involved in the regulation of autophagy initiation signaling. Therefore, while the autophagy process is taking place, the level of PtdIns(3)P should not be expected to decrease to a significant extent. A FYVE domain is a protein structure domain composed of approximately 70 amino acid residues and containing a zinc finger protein structure; it can bind specifically with PI(3)P. Generally, PI(3)P recruits proteins containing a FYVE domain in order to bind to the membrane of cellular organelles, and participate in protein trafficking and similar processes.
H4 cells were transfected with the fusion protein FYVP-red fluorescent protein (FYVE-RFP). After transfection, the cells were screened in order to obtain a suitable H4-FYVE cell line to be used as a screening platform to perform high-volume screening of compounds, which thereby indirectly reflected the effect of the compound on autophagy. Compounds which reduced FYVE-RFP fluorescence intensity were eliminated. In this experiment, change in the intensity, fluorescence and distribution of the protein marker FYVE-RFP recruited by PI(3)P before and after treatment with the potential autophagy inducing compound was assayed by high-content microscopic analysis.
DMSO was used to dilute, dissolve, and prepare a compound at different concentrations with each concentration repeated three times. A 96-well plate was inoculated with H4-FYVE cells at an appropriate density and treated with the compound for 2, 4, and 8 hours, respectively. […] If a compound affected FYVE expression or distribution, then this would be embodied precisely in the image and in the size and intensity of fluorescent spots and other numerical values.

[2] = tested on: LC3 II; experiment: Western blot of LC3 II in H4-LC cells
Source text: The autophagosome marker LC3 used in the compound-screening platform was subjected to the foregoing processing in the cytosol. Generally when the new LC3 synthesized within the cell was processed, it became cytosolic soluble LC3 I with molecular weight 18 Kd. […] The quantity of LC3 II content reflects to a certain degree the autophagic activity of a cell. Therefore, by assaying the content of LC3 II in the cell by means of the Western blot method, it is possible to further reflect the effect of the compound on autophagy.
H4-LC cells at an appropriate density were inoculated onto a 6-well plate, which was treated with a compound for 4 hours, after which the cells were collected and lysed. The protein fraction was harvested and SDS-PAGE was performed. Following electrophoresis separation the proteins were transferred to a membrane, and immunoblot analysis was performed. The cytoskeleton protein, actin, was used as an internal control.

[3] = tested on: long-lived proteins; experiment: Degradation of (3H) L-leucine labelled long-lived proteins in H4 cells; conditions: relative to blank control
Source text: The process of autophagy is a protein degradation process, which primarily mediates the degradation of cellular organelles and long-lived proteins within the cell. Therefore, in the present experiment the detection of whether a compound promotes the degradation of long-lived proteins within the cell was used as an additional indicator of whether the tested compound induces autophagy.
DMSO was used to dilute, dissolve, and prepare a compound at different concentrations with each concentration repeated three times. A 96-well plate was inoculated with H4 cells at an appropriate density and treated with the compound for 2, 4, and 24 hours, respectively. […] One day prior to the experiment, cells were inoculated onto a 12-well plate at an appropriate density and cultured under normal conditions (DMEM +10% fetal calf serum). […] Then, a complete medium containing (3H) L-leucine was used to incubate the cells for 24 hours causing the cells to take in isotope-labeled leucine and undertake protein synthesis. After 24 hours, a complete culture medium was substituted and used to incubate the cells for 24 hours to degrade short-lived proteins. After the short-lived proteins had been degraded, a complete culture medium to which the compound had been added was substituted and used to incubate the cells. The radiation intensity of the culture medium was tested at 0, 1, 2, 4, and 24 hours, respectively. At 24 hours, the cells were collected and the intensity of the isotope within the cells was tested, and the percent of long-lived protein degradation relative to the blank control group at different times after the action of the compound was computed. Compounds that increased the degradation of long-lived proteins were selected by means oft-test.

[4] = tested on: GFP-polyQ-HA; experiment: Degradation of expanded polyglutamine (GFP-polyQ-HA) in transfected H4 cells, anti-HA blot
Procedure: Large-scale accumulation of misfolded protein is a prominent feature of many neurodegenerative diseases. For example, the pathogenic mechanism of Huntington's disease is that a large amount of polyglutamine (polyQ) protein accumulates in the neurons and cannot be cleared away. Tests of polyQ elimination and degradation were used in this experiment to further determine the ability if the tested compounds to induce autophagy.
The compounds selected through screening were dissolved in DMSO and diluted in a stepwise manner in complete culture medium.

[5] = H4-LC cells, 4 hours, immunoblot, FIG. 1
[6] = H4 cells transfected with GFP-polyQ-HA, 24 hours, screening concentration and dilutions 1:2.5, 1:5, 1:10, FIG. 2

Compound	Relative fluorescent intensity of FYVE-RFP (%) ([1]; H4-FYVE cells, 2 h)	Relative fluorescent intensity of FYVE-RFP (%) ([1]; H4-FYVE cells, 4 h)	Relative fluorescent intensity of FYVE-RFP (%) ([1]; H4-FYVE cells, 8 h)	also measured
CN(C)C[C@H](O)Cn1c2ccc(Br)cc2c2cc(Br)ccc21 (racemic) [Wiskostatin]	267.90 ± 6.16%	240.08 ± 4.26%	131.93 ± 11.05%	
CN(CCc1ccc(Cl)c(Cl)c1)CC(O)COc1ccc(NS(C)(=O)=O)cc1 (stereo not shown) [AM 92016]	68.06 ± 1.20%	71.97 ± 15.67%	66.35 ± 17.66%	
CCCC[C@@H](C=O)NC(=O)[C@H](CC(C)C)NC(=O)[C@H](CC(C)C)NC(C)=O [Ac-Leu-Leu-Nle-CHO] (Ac-Leu-Leu-[Nle]-aldehyde)	72.86 ± 10.18%	84.85 ± 2.83%	88.42 ± 6.29%	
CCCCc1oc2ccccc2c1C(=O)c1cc(I)c(OCCN(CC)CC)c(I)c1.Cl [Amiodarone]				Relative fluorescent intensity of FYVE-RFP (%) [1]: 92.50 ± 5.51% and 89.23 ± 3.47% and 83.45 ± 3.64%; Increase of endogenous LC3 II / LC3 II/LC3 I percentage [2, 5]: increase of endogenous LC3 II; Percent relative degradation of long-lived proteins (%) ([3]; 1 h): 101.32 ± 5.95%; Percent relative degradation of long-lived proteins (%) ([3]; 2 h): 122.42 ± 9.71%; Percent relative degradation of long-lived proteins (%) ([3]; 4 h): 110.75 ± 3.68%; Percent relative degradation of long-lived proteins (%) ([3]; 24 h): 116.73 ± 5.54%; polyQ degradation [4]: increased polyQ degradation
COC(=O)C1=C(C)NC(C)=C([N+](=O)[O-])C1c1ccccc1C(F)(F)F (stereo not shown) [Bay K-8644]	110.18 ± 25.18%	57.79 ± 3.76%	79.70 ± 7.28%	
CCCNC(=O)[C@H]1O[C@@H]1C(=O)N[C@H](C(=O)N1CCC[C@H]1C(=O)OC)[C@@H](C)CC [CA-074-Me]	65.94 ± 12.73%	79.82 ± 4.66%	86.43 ± 4.15%	
O=C(/C=C/c1ccc(O)c(O)c1)OCCc1ccccc1 [CAPE]	86.89 ± 20.98%	71.17 ± 18.70%	69.14 ± 4.32%	
CN1CCN(C2=Nc3cc(Cl)ccc3Nc3ccccc32)CC1 [Clozapine]	64.04 ± 2.94%	74.79 ± 13.43%	78.38 ± 1.35%	
CC1=C2C[C@H]3[C@@H](CC=C4C[C@@H](O)CC[C@@]43C)[C@@H]2CC[C@]12O[C@@H]1C[C@H](C)CN[C@H]1[C@H]2C [Cyclopamine]	108.75 ± 12.44%	75.21 ± 1.18%	96.38 ± 5.12%	
COC(=O)c1c(C)[nH]c(C)c1C(=O)c1ccccc1Cc1ccccc1 [FPL-64176]	99.43 ± 9.62%	78.17 ± 1.90%	87.62 ± 2.42%	
O=C1NCN(c2ccccc2)C12CCN(CCCC(c1ccc(F)cc1)c1ccc(F)cc1)CC2 [Fluspirilene]				polyQ degradation [4, 6]: increased polyQ degradation
COC(=O)[C@@]1(O)C[C@H]2O[C@]1(C)n1c3ccccc3c3c4c(c5c6ccccc6n2c5c31)C(=O)NC4 [K252A]	76.86 ± 6.51%	65.58 ± 9.36%	70.33 ± 5.89%	
CN(C)C(=O)C(CCN1CCC(O)(c2ccc(Cl)cc2)CC1)(c1ccccc1)c1ccccc1.Cl [Loperamide]				Increase of endogenous LC3 II / LC3 II/LC3 I percentage [2]: increase of endogenous LC3 II
CC[C@H](C)[C@H](NS(=O)(=O)c1ccc2ccccc2c1)C(=O)N[C@H](C=O)Cc1c[nH]c2ccccc12 [NapSul-Ile-Trp-CHO]	89.37 ± 3.52%	64.10 ± 11.47%	62.34 ± 8.21%	
COC(=O)C1=C(C)NC(C)=C(C(=O)OCCN(C)Cc2ccccc2)C1c1cccc([N+](=O)[O-])c1.Cl (stereo not shown) [Nicardipine]	132.05 ± 19.93%	112.51 ± 10.09%	104.77 ± 31.63%	Increase of endogenous LC3 II / LC3 II/LC3 I percentage [2, 5]: increase of endogenous LC3 II; Percent relative degradation of long-lived proteins (%) ([3]; 1 h): 84.62 ± 4.48%; Percent relative degradation of long-lived proteins (%) ([3]; 2 h): 126.59 ± 3.83%; Percent relative degradation of long-lived proteins (%) ([3]; 4 h): 122.60 ± 7.70%; Percent relative degradation of long-lived proteins (%) ([3]; 24 h): 121.03 ± 13.43%; polyQ degradation [4, 6]: increased polyQ degradation
CO[C@@H]1C[C@@H](C[C@H]2CC[C@H](C)[C@H]([C@@H](C)C(=O)O)O2)O[C@]2(O[C@](C)([C@H]3CC[C@@](C)([C@@H]4O[C@@H]([C@H]5O[C@@](O)(CO)[C@H](C)C[C@@H]5C)C[C@@H]4C)O3)C[C@H]2C)[C@@H]1C [Nigericin]	148.43 ± 5.17%	145.40 ± 8.39%	140.54 ± 18.21%	
CC(C)(O)[C@H]1O[C@H]2CC[C@@]3(C)[C@@](O)(CC[C@H]4Cc5c([nH]c6ccccc56)[C@@]43C)C2=CC1=O [Paxilline]	100.56 ± 0.58%	52.37 ± 1.65%	56.82 ± 4.44%	
CCCNCC(O)COc1ccccc1C(=O)CCc1ccccc1 (stereo not shown) [Propafenone]	114.69 ± 8.90%	78.75 ± 18.93%	62.87 ± 3.38%	
C=C[C@H]1C[N@@]2CC[C@H]1C[C@H]2[C@H](O)c1ccnc2ccc(OC)cc12 [Quinine]	70.35 ± 10.23%	78.03 ± 6.33%	60.70 ± 6.59%	
CO[C@H]1C[C@@H]2CC[C@@H](C)[C@@](O)(O2)C(=O)C(=O)N2CCCC[C@H]2C(=O)O[C@H]([C@H](C)C[C@@H]2CC[C@@H](O)[C@H](OC)C2)CC(=O)[C@H](C)/C=C(\C)[C@@H](O)[C@@H](OC)C(=O)[C@H](C)C[C@H](C)/C=C/C=C/C=C/1C [Rapamycin]		131.41 ± 26.64%		
N#Cc1cc2c(OCC(O)CN3CCN(C(c4ccccc4)c4ccccc4)CC3)cccc2[nH]1 (stereo not shown) [SDZ-201106]	65.87 ± 4.72%	59.79 ± 2.38%	72.40 ± 20.27%	
CCN(CC)CCCCCCCCOC(=O)c1cc(OC)c(OC)c(OC)c1 [TMB-8]	89.59 ± 4.79%	74.72 ± 13.74%	78.64 ± 10.26%	
CC/C(=C(\c1ccccc1)c1ccc(OCCN(C)C)cc1)c1ccccc1 [Tamoxifen]	77.66 ± 4.43%	71.55 ± 0.73%	85.37 ± 7.59%	

— patent US20120077705A1, “Methods for Identifying Autophagy Inducing Compounds” (President and Fellows of Harvard College, priority 2007, published 2012)
